Measurements published in patent US9718796B2, “Substituted benzoazepines as toll-like receptor modulators” (VENTIRX PHARMACEUTICALS, INC., priority 2011, dated 2017).
Like-named read-outs stand apart in the source and are kept apart here.

Legend:
[1] = tested on: IL-8 production in human PBMC stimulated with CL075; experiment: Human PBMC assay: inhibition of IL-8 production stimulated with CL075 (ELISA); assay type: cell-based; conditions: 3 to 1000 nM antagonist, 2 hours before CL075 100 ng/ML (400 nM), overnight; one donor, duplicate wells
Method: PBMCs contain a mixture of cells including monocytes and myeloid dendritic cells (mDCs) that express TLR8. […] The ability of TLR8 antagonists to inhibit […] in human PBMCs was evaluated. […] Data shown in FIG. 1 are a representative experiment from one donor evaluated in duplicate culture wells. […] At the end of the incubation, cells were centrifuged and cell culture supernatants were analyzed for IL-8 by ELISA (eBiosciene kit) per the manufacturer's instructions.
The experiment shown in FIG. 1 was repeated in multiple donors and with additional TLR8 antagonist molecules (see FIG. 2). […] Percent inhibition is shown on the y-axis and concentrations of TLR8 antagonists (3-1000 nM) are shown on the x-axis in FIG. 2.

hTLR8 = target: T1, hTLR8 (Homo sapiens, UniProt Q9NR97); experiment: HEK-293 hTLR8 transfectant antagonist assay (NF-κB driven SEAP reporter); assay type: cell-based; conditions: hTLR8 reporter cells
T1 construct: host or cells: HEK293 cells stably transfected with hTLR8
T1 sequence (Q9NR97 27-1041): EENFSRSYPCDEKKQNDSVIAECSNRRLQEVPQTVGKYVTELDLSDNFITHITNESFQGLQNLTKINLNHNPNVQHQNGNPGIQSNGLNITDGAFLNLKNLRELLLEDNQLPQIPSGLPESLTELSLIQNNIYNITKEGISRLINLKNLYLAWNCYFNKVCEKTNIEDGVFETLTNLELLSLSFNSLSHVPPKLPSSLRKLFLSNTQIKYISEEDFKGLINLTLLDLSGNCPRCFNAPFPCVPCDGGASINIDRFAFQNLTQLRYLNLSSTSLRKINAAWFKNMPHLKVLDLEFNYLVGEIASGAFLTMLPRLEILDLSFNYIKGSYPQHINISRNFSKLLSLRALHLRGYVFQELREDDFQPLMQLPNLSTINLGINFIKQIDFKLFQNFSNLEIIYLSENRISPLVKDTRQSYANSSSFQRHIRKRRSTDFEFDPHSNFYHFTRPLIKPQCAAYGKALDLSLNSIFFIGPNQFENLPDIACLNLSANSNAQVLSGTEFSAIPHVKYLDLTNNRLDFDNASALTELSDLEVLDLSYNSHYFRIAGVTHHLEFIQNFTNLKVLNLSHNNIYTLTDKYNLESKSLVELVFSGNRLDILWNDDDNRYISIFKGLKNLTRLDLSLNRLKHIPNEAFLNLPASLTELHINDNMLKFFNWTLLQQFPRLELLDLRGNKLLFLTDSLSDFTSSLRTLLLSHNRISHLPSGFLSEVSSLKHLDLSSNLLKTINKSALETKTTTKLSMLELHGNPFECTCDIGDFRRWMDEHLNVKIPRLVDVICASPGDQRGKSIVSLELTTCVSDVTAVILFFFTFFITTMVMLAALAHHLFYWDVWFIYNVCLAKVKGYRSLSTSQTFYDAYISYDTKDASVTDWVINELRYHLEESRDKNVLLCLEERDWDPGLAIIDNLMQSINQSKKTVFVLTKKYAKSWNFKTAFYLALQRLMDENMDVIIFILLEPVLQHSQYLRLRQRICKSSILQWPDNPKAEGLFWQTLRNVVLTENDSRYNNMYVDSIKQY
Method: The HEK-293 hTLR transfectant assay employs HEK293 cells stably transfected with various hTLRs and transiently co-transfected with a plasmid containing an NF-κB driven secreted embryonic alkaline phosphate (SEAP) reporter gene. Stimulation of TLRs activates their downstream signaling pathways and induces nuclear translocation of the transcription factor NF-κB. Reporter gene activity is then measured using a spectrophotometric assay. To measure antagonist activity, human embryonic kidney (HEK) cells (e.g., 293XL-hTLR8 cells available from InvivoGen, San Diego, Calif.) are prepared according to supplier's instructions and incubated with various concentrations of test compound overnight. The amount of induced […] is measured by reading the absorbance at 650 nm. The compounds of the invention have an MC50 of 25 μM or less, wherein MC50 is defined as the concentration at which 50% of maximum induction is seen. For the TLR8 antagonist assays, cells are transiently transfected with the reporter gene on Day 1 per the supplier's instructions. Antagonist compounds are added to the cultures on Day 2 followed by addition of a TLR8 agonist approximately 2 hours later. Cultures are incubated overnight and SEAP activity is measured on Day 3. In a typical assay, 50,000 HEK239 hTLR8 cells are seeded per culture well and transiently transfected with the SEAP reporter gene. Antagonists are added to cultures in culture medium and […] DMSO over a concentration range of 0.1 nanomolar to 10 micromolar. TLR8 agonists are added to cultures 2 hours later at a fixed concentration (e.g., 1 micromolar or 10 micromolar of Compound A) and cultures are then incubated for 16-24 hrs at 37° C. in a humidified CO incubator. Antagonists are also evaluated for activity in the absence of agonist. TLR8 antagonist activity was measured in a hTLR8 assay format, measuring IC50 values. […] IC50s were then calculated.

[2] = IC50, nM, vs. 3M002 10 μM, agonist 3M002 10 μM
[3] = IC50, nM, vs. VTX-378 1 μM, TLR8 agonist VTX-378 (Compound A) 1 μM
[4] = TLR8 agonist VTX-378 (Compound A) 0.5 μM, read-out: IC50, nM, vs. VTX-378 0.5 μM
[5] = IC50, nM, vs. 3M002 1 μM, agonist 3M002 1 μM

Row | IC50 (hTLR8; [2]) | IC50 (hTLR8; [3]) | IC50 (hTLR8; [4]) | IC50 (hTLR8; [5]) | SMILES | IL-8 levels in human PBMC stimulated with CL075 (FIG. 1) [1]
1 |  |  |  |  | CCCN(CCC)C(=O)C1=Cc2cc(-c3ccc(C(=O)N4CCCC4)cc3)ccc2N=C(N)C1 [Compound 2987, 2-Amino-N,N-dipropyl-7-[4-(pyrrolidin-1-ylcarbonyl)phenyl]-3H-1-benzazepine-4-carboxamide] | reduced in a dose dependent fashion
2 | < 1000 nM | < 1000 nM | < 1000 nM |  | CCOC(=O)Nc1ccc(-c2ccc3c(c2)C=C(C(=O)OCC)CC(N)=N3)c(Cl)c1 [Compound 3261, Ethyl 2-amino-7-{2-chloro-4-[(ethoxycarbonyl)amino]phenyl}-3H-1-benzazepine-4-carboxylate] | reduced in a dose dependent fashion
3 | 1000 to 10000 nM | 1000 to 10000 nM | < 1000 nM | < 1000 nM | CCOC(=O)C1=Cc2cc(-c3ccc(NC(=O)N(C)C)cc3)ccc2N=C(N)C1 [Compound 3290, Ethyl 2-amino-7-{4-[(dimethylcarbamoyl)amino]phenyl}-3H-1-benzazepine-4-carboxylate] | 
4 |  | 1000 to 10000 nM | 1000 to 10000 nM |  | CCOC(=O)C1=Cc2cc(-c3cccc(C)c3Cl)ccc2N=C(N)C1 [Compound 3294, Ethyl 2-amino-7-(2-chloro-3-methylphenyl)-3H-1-benzazepine-4-carboxylate] | 
5 | < 1000 nM | < 1000 nM | < 1000 nM | < 1000 nM | CCOC(=O)C1=Cc2cc(-c3ccc(N4CCOC4=O)cc3)ccc2N=C(N)C1 [Compound 3300, Ethyl 2-amino-7-[4-(2-oxo-1,3-oxazolidin-3-yl)phenyl]-3H-1-benzazepine-4-carboxylate] | 
6 | < 1000 nM | < 1000 nM | < 1000 nM |  | CCOC(=O)C1=Cc2cc(-c3ccc(C(=O)N4CCCC4)cc3Cl)ccc2N=C(N)C1 [Compound 3322] | 
7 | 1000 to 10000 nM | 1000 to 10000 nM | < 1000 nM | < 1000 nM | CCCN(CC(N)=O)C(=O)C1=Cc2cc(-c3ccc(NC(=O)OCC)cc3Cl)ccc2N=C(N)C1 [Compound 3336, Ethyl (4-{2-amino-4-[(2-amino-2-oxoethyl)(propyl)carbamoyl)-3H-1-benzazepin-7-yl}-3-chlorophenyl)carbamate] | 
8 | < 1000 nM | < 1000 nM | < 1000 nM |  | CCCN(CC(N)=O)C(=O)C1=Cc2cc(-c3ccc(C(=O)N4CCCC4)cc3Cl)ccc2N=C(N)C1 [Compound 3342, 2-Amino-N-(2-amino-2-oxoethyl)-7-[2-chloro-4-(pyrrolidin-1-ylcarbonyl)phenyl]-N-propyl-3H-1-benzazepine-4-carboxamide] | 
9 |  | < 1000 nM | < 1000 nM |  | CCCN(CC(N)=O)C(=O)C1=Cc2cc(-c3ccc(C(=O)N4CCCC4)cc3C)ccc2N=C(N)C1 [Compound 3343, 2-Amino-N-(2-amino-2-oxoethyl)-7-[2-methyl-4-(pyrrolidin-1-ylcarbonyl)phenyl]-N-propyl-3H-1-benzazepine-4-carboxamide] | 
10 |  |  |  |  | CCOC(=O)C1=Cc2cc(-c3ccc(C(=O)N4CCCC4)cc3)ccc2N=C(N)C1(C)C [Compound 3348, Ethyl 2-amino-3,3-dimethyl-7-[4-(pyrrolidin-1-ylcarbonyl)phenyl]-3H-1-benzazepine-4-carboxylate] | reduced in a dose dependent fashion
11 |  | < 1000 nM | < 1000 nM |  | CCOC(=O)C1=Cc2cc(-c3cccc(OC)c3Cl)ccc2N=C(N)C1 [Compound 3386, Ethyl 2-amino-7-(2-chloro-3-methoxyphenyl)-3H-1-benzazepine-4-carboxylate] | 
12 | < 1000 nM | < 1000 nM | < 1000 nM |  | CCOC(=O)C1=Cc2cc(-c3ccc(N4CCOC4=O)cc3Cl)ccc2N=C(N)C1 [Compound 3387, Ethyl 2-amino-7-[2-chloro-4-(2-oxo-1,3-oxazolidin-3-yl)phenyl]-3H-1-benzazepine-4-carboxylate] | reduced in a dose dependent fashion
13 |  | < 1000 nM | < 1000 nM |  | NC1=Nc2ccc(-c3ccc(C(=O)N4CCCC4)cc3)cc2C=C(Br)C1 [Compound 3444] | 

Row | SMILES | IC50 (hTLR8; [2]) | IC50 (hTLR8; [3]) | IC50 (hTLR8; [4]) | IC50 (hTLR8; [5]) | IL-8 levels in human PBMC stimulated with CL075 (FIG. 1) [1]
14 | CCOC(=O)C1=Cc2cc(-c3ccc(C(=O)N4CCCC4)cc3)ccc2N=C2NCCC12 (stereo not drawn) [Compound 3448] |  | < 1000 nM | < 1000 nM |  | reduced in a dose dependent fashion
